Results taken from the CheMixHub ionic liquid set.
± gives the uncertainty stated by the source.

Test: xn = mol fraction of the nth substance listed

CCCC[n+]1ccn(C)c1.[Cl-] + OC[C@H]1O[C@@](CO)(O[C@H]2O[C@H](CO)[C@@H](O)[C@H](O)[C@H]2O)[C@@H](O)[C@@H]1O + O
298.15 K, 101.3 kPa
Settings	electrical conductivity [S/m]
x2 = 0, x1 = 8.71e-06	0.00583 ± 6e-05
x2 = 0, x1 = 1.208e-05	0.00794 ± 8e-05
x2 = 0, x1 = 1.485e-05	0.00965 ± 0.0001
x2 = 0, x1 = 1.707e-05	0.01101 ± 0.00011
x2 = 0, x1 = 1.937e-05	0.01241 ± 0.00012
x2 = 0, x1 = 2.164e-05	0.0138 ± 0.00014
x2 = 0, x1 = 2.397e-05	0.0152 ± 0.00015
x2 = 0, x1 = 2.6e-05	0.0164 ± 0.00017
x2 = 0, x1 = 2.824e-05	0.0177 ± 0.00018
x2 = 0, x1 = 3.029e-05	0.019 ± 0.00019
x2 = 0.003591, x1 = 1.096e-05	0.00618 ± 6e-05
x2 = 0.003591, x1 = 1.434e-05	0.00795 ± 8e-05
x2 = 0.003591, x1 = 1.771e-05	0.0097 ± 0.0001
x2 = 0.003591, x1 = 2.081e-05	0.0113 ± 0.00011
x2 = 0.003591, x1 = 2.41e-05	0.013 ± 0.00013
x2 = 0.003591, x1 = 2.709e-05	0.0145 ± 0.00015
x2 = 0.003591, x1 = 3.023e-05	0.01612 ± 0.00016
x2 = 0.003591, x1 = 3.313e-05	0.0176 ± 0.00018
x2 = 0.003591, x1 = 3.593e-05	0.019 ± 0.00019
x2 = 0.007156, x1 = 8.21e-06	0.00407 ± 4e-05
x2 = 0.007156, x1 = 1.202e-05	0.00576 ± 6e-05
x2 = 0.007156, x1 = 1.591e-05	0.00748 ± 8e-05
x2 = 0.007156, x1 = 1.939e-05	0.009 ± 9e-05
x2 = 0.007156, x1 = 2.274e-05	0.0105 ± 0.00011
x2 = 0.007156, x1 = 2.585e-05	0.0118 ± 0.00012
x2 = 0.007156, x1 = 2.894e-05	0.01315 ± 0.00013
x2 = 0.007156, x1 = 3.183e-05	0.01439 ± 0.00014
x2 = 0.007156, x1 = 3.476e-05	0.0156 ± 0.00016
x2 = 0.007156, x1 = 3.761e-05	0.0169 ± 0.00017
x2 = 0.0107, x1 = 9.71e-06	0.00386 ± 4e-05
x2 = 0.0107, x1 = 2.409e-05	0.00888 ± 9e-05
x2 = 0.0107, x1 = 3.038e-05	0.01101 ± 0.00011
x2 = 0.0107, x1 = 3.477e-05	0.0125 ± 0.00013
x2 = 0.0107, x1 = 3.967e-05	0.01408 ± 0.00014
x2 = 0.0107, x1 = 4.399e-05	0.0155 ± 0.00016
x2 = 0.0107, x1 = 4.83e-05	0.0169 ± 0.00017
x2 = 0.0107, x1 = 5.264e-05	0.01825 ± 0.00018
x2 = 0.0107, x1 = 5.673e-05	0.0195 ± 0.0002
x2 = 0.01421, x1 = 1.037e-05	0.00348 ± 4e-05
x2 = 0.01421, x1 = 1.591e-05	0.00514 ± 5e-05
x2 = 0.01421, x1 = 2.109e-05	0.00667 ± 7e-05
x2 = 0.01421, x1 = 2.647e-05	0.00823 ± 8e-05
x2 = 0.01421, x1 = 3.163e-05	0.00971 ± 0.0001
x2 = 0.01421, x1 = 3.643e-05	0.01107 ± 0.00011
x2 = 0.01421, x1 = 4.107e-05	0.01237 ± 0.00012
x2 = 0.01421, x1 = 4.582e-05	0.0137 ± 0.00014
x2 = 0.01421, x1 = 5.048e-05	0.015 ± 0.00015
x2 = 0.01421, x1 = 5.498e-05	0.01621 ± 0.00016
x2 = 0.01421, x1 = 5.983e-05	0.0175 ± 0.00018
x2 = 0.0177, x1 = 1.237e-05	0.00351 ± 4e-05
x2 = 0.0177, x1 = 1.842e-05	0.00504 ± 5e-05
x2 = 0.0177, x1 = 2.347e-05	0.00631 ± 6e-05
x2 = 0.0177, x1 = 2.887e-05	0.00764 ± 8e-05
x2 = 0.0177, x1 = 3.44e-05	0.00899 ± 9e-05
x2 = 0.0177, x1 = 4.072e-05	0.0105 ± 0.00011
x2 = 0.0177, x1 = 4.633e-05	0.0118 ± 0.00012
x2 = 0.0177, x1 = 5.265e-05	0.01333 ± 0.00013
x2 = 0.0177, x1 = 5.909e-05	0.0148 ± 0.00015
x2 = 0.0177, x1 = 6.545e-05	0.0163 ± 0.00016
x2 = 0.0177, x1 = 7.135e-05	0.0176 ± 0.00018

CCCC[n+]1ccn(C)c1.O=S(=O)([O-])C(F)(F)F + CN(C)c1ccccc1
Settings	viscosity [mPa·s]
308.15 K, 100 kPa, x2 = 0	52.2 ± 2.3

O=C1CCCO1 + CCCC[n+]1ccn(C)c1.O=S(=O)([N-]S(=O)(=O)C(F)(F)F)C(F)(F)F
100 kPa
Settings	electrical conductivity [S/m]	viscosity [mPa·s]
293.15 K, x1 = 0.2992	0.457 ± 0.014	29.86 ± 0.63
293.15 K, x1 = 0.8496	1.39 ± 0.042	–
293.15 K, x2 = 0.0151	0.411 ± 0.013	–
298.15 K, x1 = 0.5021	0.744 ± 0.022	14.84 ± 0.31
303.15 K, x1 = 0.2992	0.642 ± 0.019	20.99 ± 0.44
308.15 K, x1 = 0.5979	1.27 ± 0.038	8.18 ± 0.17
308.15 K, x1 = 0.7999	1.81 ± 0.054	4.12 ± 0.09
308.15 K, x1 = 0.8496	1.85 ± 0.055	–
308.15 K, x1 = 1	0.001 ± 0.001	1.52 ± 0.03
313.15 K, x1 = 0.1984	0.753 ± 0.023	18.48 ± 0.39
313.15 K, x1 = 0.5979	1.45 ± 0.043	7.26 ± 0.15
313.15 K, x1 = 0.95	1.42 ± 0.043	–
313.15 K, x1 = 1	0.001 ± 0.001	1.42 ± 0.03
313.15 K, x2 = 0.0151	0.542 ± 0.016	–
318.15 K, x1 = 0.7999	2.15 ± 0.065	3.44 ± 0.07
318.15 K, x1 = 0.8496	2.17 ± 0.065	–
318.15 K, x1 = 0.8995	2.02 ± 0.061	2.35 ± 0.05
318.15 K, x1 = 1	0.001 ± 0.001	1.35 ± 0.03
323.15 K, x1 = 0.7999	2.37 ± 0.071	3.11 ± 0.07
323.15 K, x1 = 1	0.002 ± 0.001	1.3 ± 0.03

CC(C)O + CCCCCC[n+]1ccn(C)c1.O=S(=O)([O-])C(F)(F)F
100 kPa, x1 = 1
Settings	viscosity [mPa·s]
298.15 K	2.05 ± 0.21
308.15 K	1.49 ± 0.15

COC[n+]1ccn(C)c1.O=S(=O)([N-]S(=O)(=O)C(F)(F)F)C(F)(F)F + O
Settings	viscosity [mPa·s]
283 K, 101 kPa, x1 = 0.8283	80.4 ± 1.9

CCCCCCCC[n+]1ccn(C)c1.O=C([O-])[C@@H]1CCCN1 + O
298.15 K, 100 kPa, frequency 0.001 MHz
Settings	electrical conductivity [S/m]
x1 = 0.001745	0.149 ± 0.0036
x1 = 0.002409	0.209 ± 0.004
x1 = 0.002947	0.264 ± 0.004
x1 = 0.003555	0.308 ± 0.0043
x1 = 0.004199	0.369 ± 0.0048
x1 = 0.004895	0.425 ± 0.0053
x1 = 0.005502	0.483 ± 0.0057
x1 = 0.006143	0.531 ± 0.0058
x1 = 0.006819	0.572 ± 0.006
x1 = 0.0076	0.608 ± 0.0063
x1 = 0.008416	0.648 ± 0.0067
x1 = 0.009336	0.688 ± 0.0071
x1 = 0.01018	0.725 ± 0.0074
x1 = 0.01137	0.783 ± 0.008
x1 = 0.01233	0.819 ± 0.0083
x1 = 0.01355	0.879 ± 0.009
